# Laboratory results reported in ChEMBL document CHEMBL5724914, “Linking interpersonal differences in gut microbiota composition and drug biotransformation activity” (2024).
# Assay: (§1) The drug is tested on Z-028 corresponding to mouse gut metagenome with ENA study accession number: PRJEB37062 and ENA sample accession number: ERS12561827 for biotransformation under anaerobic condition. The drug concentrations were measured over 9 timepoints collected between 0 and 24 hours of incubation by liquid-chromatography-coupled mass spectrometry (LC–MS)
# Details: 2 µM
# Note: call rule not given here.
row,Bacterial Biotransformation,SMILES
1,Compound NOT metabolized,N=C(N)NC(=O)Cc1c(Cl)cccc1Cl [GUANFACINE]
2,Compound NOT metabolized,Nc1nc(N)nc(-c2cc(Cl)ccc2Cl)n1.O=C(O)/C=C\C(=O)O [IRSOGLADINE MALEATE]

# Assay: as §1, with “WLS-052” for “Z-028”, “human” for “mouse”, “ERS12561747” for “ERS12561827”
# Details: 2 µM
row,Bacterial Biotransformation,SMILES
1,Compound NOT metabolized,N=C(N)NC(=O)Cc1c(Cl)cccc1Cl [GUANFACINE]
2,Compound NOT metabolized,Nc1nc(N)nc(-c2cc(Cl)ccc2Cl)n1.O=C(O)/C=C\C(=O)O [IRSOGLADINE MALEATE]

# Details: human gut metagenome, 24 h, 2 µM
row,Bacterial Biotransformation,SMILES
1,Compound NOT metabolized,N=C(N)NC(=O)Cc1c(Cl)cccc1Cl [GUANFACINE]
2,Compound NOT metabolized,Nc1nc(N)nc(-c2cc(Cl)ccc2Cl)n1.O=C(O)/C=C\C(=O)O [IRSOGLADINE MALEATE]

# Details: human gut metagenome, 24 h, 2 µM
# Remark: another data set of the same source
row,Bacterial Biotransformation,SMILES
1,Compound NOT metabolized,N=C(N)NC(=O)Cc1c(Cl)cccc1Cl [GUANFACINE]
2,Compound NOT metabolized,Nc1nc(N)nc(-c2cc(Cl)ccc2Cl)n1.O=C(O)/C=C\C(=O)O [IRSOGLADINE MALEATE]

# Details: human gut metagenome, 24 h, 2 µM
# Remark: another data set of the same source
row,Bacterial Biotransformation,SMILES
1,Compound NOT metabolized,N=C(N)NC(=O)Cc1c(Cl)cccc1Cl [GUANFACINE]
2,Compound NOT metabolized,Nc1nc(N)nc(-c2cc(Cl)ccc2Cl)n1.O=C(O)/C=C\C(=O)O [IRSOGLADINE MALEATE]

# Details: human gut metagenome, 24 h, 2 µM
# Remark: another data set of the same source
row,Bacterial Biotransformation,SMILES
1,Compound NOT metabolized,N=C(N)NC(=O)Cc1c(Cl)cccc1Cl [GUANFACINE]
2,Compound NOT metabolized,Nc1nc(N)nc(-c2cc(Cl)ccc2Cl)n1.O=C(O)/C=C\C(=O)O [IRSOGLADINE MALEATE]

# Assay: as §1, with “Z-022” for “Z-028”, “ERS12561821” for “ERS12561827”
# Details: 2 µM
row,Bacterial Biotransformation,SMILES
1,Compound NOT metabolized,N=C(N)NC(=O)Cc1c(Cl)cccc1Cl [GUANFACINE]
2,Compound NOT metabolized,Nc1nc(N)nc(-c2cc(Cl)ccc2Cl)n1.O=C(O)/C=C\C(=O)O [IRSOGLADINE MALEATE]

# Details: human gut metagenome, 24 h, 2 µM
# Remark: another data set of the same source
row,Bacterial Biotransformation,SMILES
1,Compound NOT metabolized,N=C(N)NC(=O)Cc1c(Cl)cccc1Cl [GUANFACINE]
2,Compound NOT metabolized,Nc1nc(N)nc(-c2cc(Cl)ccc2Cl)n1.O=C(O)/C=C\C(=O)O [IRSOGLADINE MALEATE]

# Details: human gut metagenome, 24 h, 2 µM
# Remark: another data set of the same source
row,Bacterial Biotransformation,SMILES
1,Compound NOT metabolized,N=C(N)NC(=O)Cc1c(Cl)cccc1Cl [GUANFACINE]
2,Compound metabolized,Nc1nc(N)nc(-c2cc(Cl)ccc2Cl)n1.O=C(O)/C=C\C(=O)O [IRSOGLADINE MALEATE]

# Assay: as §1, with “Z-020” for “Z-028”, “rabbit” for “mouse”, “ERS12561819” for “ERS12561827”
# Details: 2 µM
row,Bacterial Biotransformation,SMILES
1,Compound NOT metabolized,N=C(N)NC(=O)Cc1c(Cl)cccc1Cl [GUANFACINE]
2,Compound NOT metabolized,Nc1nc(N)nc(-c2cc(Cl)ccc2Cl)n1.O=C(O)/C=C\C(=O)O [IRSOGLADINE MALEATE]

# Assay: as §1, with “WLS-240” for “Z-028”, “human” for “mouse”, “ERS12561773” for “ERS12561827”
# Details: 2 µM
row,Bacterial Biotransformation,SMILES
1,Compound NOT metabolized,N=C(N)NC(=O)Cc1c(Cl)cccc1Cl [GUANFACINE]
2,Compound NOT metabolized,Nc1nc(N)nc(-c2cc(Cl)ccc2Cl)n1.O=C(O)/C=C\C(=O)O [IRSOGLADINE MALEATE]

# Details: human gut metagenome, 24 h, 2 µM
# Remark: another data set of the same source
row,Bacterial Biotransformation,SMILES
1,Compound NOT metabolized,N=C(N)NC(=O)Cc1c(Cl)cccc1Cl [GUANFACINE]
2,Compound NOT metabolized,Nc1nc(N)nc(-c2cc(Cl)ccc2Cl)n1.O=C(O)/C=C\C(=O)O [IRSOGLADINE MALEATE]

# Details: human gut metagenome, 24 h, 2 µM
# Remark: another data set of the same source
row,Bacterial Biotransformation,SMILES
1,Compound NOT metabolized,N=C(N)NC(=O)Cc1c(Cl)cccc1Cl [GUANFACINE]
2,Compound NOT metabolized,Nc1nc(N)nc(-c2cc(Cl)ccc2Cl)n1.O=C(O)/C=C\C(=O)O [IRSOGLADINE MALEATE]

# Assay: as §1, with “WLS-220” for “Z-028”, “human” for “mouse”, “ERS12561769” for “ERS12561827”
# Details: 2 µM
row,Bacterial Biotransformation,SMILES
1,Compound NOT metabolized,N=C(N)NC(=O)Cc1c(Cl)cccc1Cl [GUANFACINE]
2,Compound NOT metabolized,Nc1nc(N)nc(-c2cc(Cl)ccc2Cl)n1.O=C(O)/C=C\C(=O)O [IRSOGLADINE MALEATE]

# Details: human gut metagenome, 24 h, 2 µM
# Remark: another data set of the same source
row,Bacterial Biotransformation,SMILES
1,Compound NOT metabolized,N=C(N)NC(=O)Cc1c(Cl)cccc1Cl [GUANFACINE]
2,Compound NOT metabolized,Nc1nc(N)nc(-c2cc(Cl)ccc2Cl)n1.O=C(O)/C=C\C(=O)O [IRSOGLADINE MALEATE]

# Assay: as §1, with “Z-029” for “Z-028”, “rat” for “mouse”, “ERS12561828” for “ERS12561827”
# Details: 2 µM
row,Bacterial Biotransformation,SMILES
1,Compound NOT metabolized,N=C(N)NC(=O)Cc1c(Cl)cccc1Cl [GUANFACINE]
2,Compound NOT metabolized,Nc1nc(N)nc(-c2cc(Cl)ccc2Cl)n1.O=C(O)/C=C\C(=O)O [IRSOGLADINE MALEATE]

# Assay: as §1, with “WLS-170” for “Z-028”, “human” for “mouse”, “ERS12561762” for “ERS12561827”
# Details: 2 µM
row,Bacterial Biotransformation,SMILES
1,Compound NOT metabolized,N=C(N)NC(=O)Cc1c(Cl)cccc1Cl [GUANFACINE]
2,Compound NOT metabolized,Nc1nc(N)nc(-c2cc(Cl)ccc2Cl)n1.O=C(O)/C=C\C(=O)O [IRSOGLADINE MALEATE]

# Details: human gut metagenome, 24 h, 2 µM
# Remark: another data set of the same source
row,Bacterial Biotransformation,SMILES
1,Compound NOT metabolized,N=C(N)NC(=O)Cc1c(Cl)cccc1Cl [GUANFACINE]
2,Compound NOT metabolized,Nc1nc(N)nc(-c2cc(Cl)ccc2Cl)n1.O=C(O)/C=C\C(=O)O [IRSOGLADINE MALEATE]

# Assay: as §1, with “Z-007” for “Z-028”, “rat” for “mouse”, “ERS12561807” for “ERS12561827”
# Details: 2 µM
row,Bacterial Biotransformation,SMILES
1,Compound NOT metabolized,N=C(N)NC(=O)Cc1c(Cl)cccc1Cl [GUANFACINE]
2,Compound NOT metabolized,Nc1nc(N)nc(-c2cc(Cl)ccc2Cl)n1.O=C(O)/C=C\C(=O)O [IRSOGLADINE MALEATE]

# Assay: as §1, with “WLS-077” for “Z-028”, “human” for “mouse”, “ERS12561750” for “ERS12561827”
# Details: 2 µM
row,Bacterial Biotransformation,SMILES
1,Compound NOT metabolized,N=C(N)NC(=O)Cc1c(Cl)cccc1Cl [GUANFACINE]
2,Compound NOT metabolized,Nc1nc(N)nc(-c2cc(Cl)ccc2Cl)n1.O=C(O)/C=C\C(=O)O [IRSOGLADINE MALEATE]
